From article PMC9918898, “Bioactive Clerodane Diterpenoids from the Leaves of Casearia coriacea Vent” (Molecules, 2023)
Converted amounts (≈) assume the structure as drawn. “And” between values parts separate entries of the source, which are not always exact repeats. Equal entries are not always repeated. Where two headings read alike, the source gives them in different places. Blank lines part the entries; values can stand above or below the compound they belong to.

Columns and labels:
[1] = system: Leishmania mexicana mexicana; assay: Antileishmanial assay (AlamarBlue); type: cell-based
Protocol: (§1) A continuous in vitro culture of asexual erythrocyte stages of P. falciparum, chloroquine-sensitive strain 3D7 (ATCC), was maintained following the procedure of Trager and Jensen. Antiplasmodial activity tests were conducted as previously described by the determination of lactate deshydrogenase activity. IC50 was calculated from graphs (GraphPad Prism). T. brucei strain 427 (Molteno Institute in Cambridge, UK) and L. mexicana mexicana (MHOM/BZ/84/BEL46 from Pr. P.A.M Michels of De Duve Institue, UCLouvain) were maintained following the procedure previously described by the team of Pr. Quetin-Leclercq. Antileshmanial and antitrypanosomal assays were conducted as previously described, using the AlamarBlue assay.

[2] = system: Trypanosoma brucei brucei; assay: Antitrypanosomal assay (AlamarBlue); type: cell-based
Protocol: as §1

[3] = system: P. falciparum 3D7; assay: Antiplasmodial activity, lactate dehydrogenase assay; type: cell-based; settings: Plasmodium falciparum
Protocol: as §1

[4] = system: zebrafish; set-up: method as in PMID 21738604; settings: cited from earlier work
[5] = Hemolysis; type: cell-based
[6] = Zebrafish embryos acute toxicity test; type: in vivo, Danio rerio; settings: zebrafish (Danio rerio), in vivo, other: immersion of embryos in treatment solution in wells; zebrafish embryos
Protocol: (§2) Adult zebrafish (Danio rerio) were maintained, fulfilling the criteria of the Ethical Committee for the Use of Laboratory Animals at the University of Liège. They were maintained at 28 °C over a period of 14 h day/10 h night, and fertilized eggs were collected, washed with sterile water, and placed in Petri dishes. The embryos were collected, and their chorions were not removed at 24 hpf. Compound 1 was dissolved in DMSO (the maximum final concentration of DMSO was 0.4%). Twenty embryos were used per condition in a 6-well plate. Each well contained 5 mL of the treatment dose (compound 1 or DMSO 0.4%), which was replaced daily for three days. The embryos were observed under a binocular microscope daily until 72 hpf (hours post fertilization).

[7] = system: zebrafish embryos; assay: Zebrafish embryos acute toxicity test; type: in vivo, Danio rerio
Protocol: as §2

[8] = system: A549 cells; assay: In vitro cytotoxic activity (Prestoblue); type: cell-based, human; settings: towards Plasmodium
Protocol: (§3) Assays were performed on different human cancer cell lines (MDA-MB-231, PANC-1, and A549 cells obtained from ATCC) to evaluate the cytotoxicity potential of the compounds 1–3, and the crude extract. Cells were grown in high-glucose Dulbecco’s modified Eagle Medium (DMEM, Gibco) supplemented with glutamine (2 mM), penicillin (50 IU/mL), streptomycin (0.5 mg/mL), sodium pyruvate (0.5 mM), and 10% FBS (Foetal Bovine Serum) at 37 °C with 5% CO2 in the air. Compounds were tested in 96-well microplates using the Prestoblue® colorimetric assay for cell viability based on the reduction of resazurin in resorufin as previously described. Briefly, 2500 cells were seeded per well in 100 µL of medium supplemented with adequate concentrations of the tested drugs. After 72 h of drug exposure, 75 µL of diluted solution of Prestoblue reagent were added to each well, and the plate was incubated in the dark for 2 h at 37 °C. Any changes in cell viability were detected using fluorescence spectroscopy. The fluorescence of resorufin was measured using a SpectraMax i3 plate reader (Molecular Devices™) with excitation and emission wavelengths set at 560 nm and 590 nm, respectively. The cell viability was expressed as a percentage relative to control-vehicle-treated cells (DMSO 0.1%). IC50 values were calculated from graphs based on a regression line in which the resorufin fluorescence values were plotted against the logarithm of drug concentration.

[9] = system: PANC-1 cells; assay: In vitro cytotoxic activity (Prestoblue); type: cell-based, human; settings: towards Plasmodium
Protocol: as §3

[10] = system: MDA-MB-231 cells; assay: In vitro cytotoxic activity (Prestoblue); type: cell-based, human; settings: towards Plasmodium
Protocol: as §3

[11] = n = 3, mean ± SD, read-out: Trypanosoma IC50 (converted)
[12] = 3D7, n = 3, mean ± SD, read-out: P. falciparum 3D7 IC50 (converted)
[13] = n = 3, mean ± SD, read-out: Leishmania IC50 (converted)

SMILES: N=C(N)c1ccc(OCCCCCOc2ccc(C(=N)N)cc2)cc1 [Pentamidine, reference compound]
IC50 ([1]; read-out: Leishmania IC50): 0.02 µg/mL and 60 nM

IC50 [2, 11]: 0.05 µg/mL and 40 nM
SMILES: Cc1ccc(C(=O)Nc2ccc(S(=O)(=O)O)c3cc(S(=O)(=O)O)cc(S(=O)(=O)O)c23)cc1NC(=O)c1cccc(NC(=O)Nc2cccc(C(=O)Nc3cc(C(=O)Nc4ccc(S(=O)(=O)O)c5cc(S(=O)(=O)O)cc(S(=O)(=O)O)c45)ccc3C)c2)c1 [Suramine, reference compound]

IC50 [3, 12]: 0.004 ± 0.001 µg/mL (≈ 0.0142 µM)
SMILES: C[C@@H]1CC[C@H]2[C@@H](C)C(=O)O[C@@H]3O[C@@]4(C)CC[C@@H]1[C@]32OO4 [Artemisinin, reference compound]

SMILES: C[C@H]1O[C@@H](O[C@H]2[C@@H](O)C[C@H](O[C@H]3[C@@H](O)C[C@H](O[C@H]4CC[C@@]5(C)[C@H](CC[C@@H]6[C@@H]5C[C@@H](O)[C@]5(C)[C@@H](C7=CC(=O)OC7)CC[C@]65O)C4)O[C@@H]3C)O[C@@H]2C)C[C@H](O)[C@@H]1O [digoxin]
lethal dose 50 (LC50) [4]: 0.5 ± 0.006 µg/mL

SMILES: CC(=O)Nc1ccc(O)cc1 [paracetamol]
lethal dose 50 (LC50) [4]: 535.8 ± 17.1 µg/mL

SMILES: CN1CCC[C@H]1c1cccnc1 [nicotine]
lethal dose 50 (LC50) [4]: 35.1 ± 0.5 µg/mL

SMILES: C=CC(=C)CC[C@]1(C)[C@H]2C[C@H](OC(=O)C(C)C)C=C3[C@H](OC(C)=O)O[C@H](OC(C)=O)[C@@]32[C@H](O)C[C@@H]1C [Compound 2, corymbulosine I]
hemolysis ([5]; red blood cells, read-out: Hemolysis): < 1% | IC50 [2, 11]: 3 µg/mL and 5.95 µM | IC50 [1, 13]: 10.3 µg/mL and 20.4 µM | IC50 [3, 12]: 0.4 µg/mL and 790 nM

SMILES: C=CC(=C)CC[C@]1(C)[C@H]2C[C@H](OC(=O)C(C)CC)C=C3[C@H](OC(C)=O)O[C@H](OC(C)=O)[C@@]32[C@H](O)C[C@@H]1C (relative stereo) [Compound 3, rel-(2S,5R,6R,8S,9S,10R,18S,19R)-18,19-epoxy-18,19-diacetoxy-6-hydroxy-2-(2-methylbutanoyloxy)cleroda-3,13(16),14-triene]
hemolysis [5]: < 1% | IC50 [2, 11]: 3.03 µg/mL and 5.85 µM | IC50 [1, 13]: 26 µg/mL and 50.3 µM | IC50 [3, 12]: 0.51 µg/mL and 980 nM

SMILES: C=CC(=C)CC[C@]1(C)[C@H]2C[C@H](OC(=O)CCC)C=C3[C@H](OC(C)=O)O[C@H](OC(C)=O)[C@@]32[C@H](O)C[C@@H]1C [Compound 1, caseamembrin T]
hemolysis [5]: < 1% | LC50 at 3 days [6]: 1 to 5 µg/mL (≈ 1.98 to 9.91 µM) | embryos alive ([7]; 5 µg/mL, 48 hpf): 20% | state of embryos ([7]; 5 µg/mL, 72 hpf): lifeless | lethality ([7]; concentrations higher than 5 µg/mL): lethal for all embryos | mortality and morphological change ([7]; up to a concentration of 1 µg/mL): neither mortality nor morphological change were observed | IC50 ([2]; read-out: Trypanosoma IC50): 3.08 µg/mL and 6.11 µM | IC50 [1, 13]: 26.1 µg/mL and 51.7 µM | IC50 ([3]; 3D7, read-out: P. falciparum 3D7 IC50): 0.25 µg/mL and 490 nM | selectivity index against A549 [8]: 6.5 | selectivity index against PANC-1 [9]: 3 | selectivity index against MDA-MB-231 [10]: 5.4
